# Data from ChEMBL document CHEMBL4346757, “Synthesis and biological evaluation of 7-methoxy-1-(3,4,5-trimethoxyphenyl)-4,5-dihydro-2H-benzo[e]indazoles as new colchicine site inhibitors” (Bioorg Med Chem Lett, 2019).
# Experiments:
# Type in all cases: functional
# SNB-19 [1] = experiment: Growth inhibition of human SNB19 cells assessed as cell growth at 1 uM after 48 hrs by SRB assay relative to control; conditions: SNB-19, 48 h, read-out: Activity
# HOP-62 [2] = experiment: Growth inhibition of human HOP62 cells assessed as cell growth at 0.1 uM after 48 hrs by SRB assay relative to control; conditions: HOP-62, 48 h, read-out: Activity
# COLO 205 = experiment: Growth inhibition of human COLO205 cells assessed as cell growth at 1 uM after 48 hrs by SRB assay relative to control; conditions: COLO 205, 48 h, read-out: Activity
# OVCAR-8 [3] = experiment: Growth inhibition of human OVCAR8 cells assessed as cell growth at 0.01 uM after 48 hrs by SRB assay relative to control; conditions: OVCAR-8, 48 h, read-out: Activity
# NCI-H322M = experiment: Growth inhibition of human NCI-H322M cells assessed as cell growth at 100 uM after 48 hrs by SRB assay relative to control; conditions: read-out: Activity
# MDA-MB-435 [4] = experiment: Growth inhibition of human MDA-MB-435 cells assessed as cell growth at 100 uM after 48 hrs by SRB assay relative to control; conditions: MDA-MB-435, 48 h, read-out: Activity
# RPMI-8226 = experiment: Growth inhibition of human RPMI8226 cells assessed as cell growth at 1 uM after 48 hrs by SRB assay relative to control; conditions: RPMI-8226, 48 h, read-out: Activity
# EKVX = experiment: Cytotoxicity against human EKVX cells assessed as growth inhibition after 48 hrs by SRB assay
# KM12 = experiment: Cytotoxicity against human KM12 cells assessed as growth inhibition after 48 hrs by SRB assay; conditions: KM12, 48 h
# 786-0 [5] = experiment: Growth inhibition of human 786-0 cells assessed as cell growth at 100 uM after 48 hrs by SRB assay relative to control; conditions: 786-0, 48 h, read-out: Activity
# CCRF-CEM = experiment: Growth inhibition of human CCRF-CEM cells assessed as cell growth at 10 uM after 48 hrs by SRB assay relative to control; conditions: read-out: Activity
# SNB-19 [6] = experiment: Growth inhibition of human SNB19 cells assessed as cell growth at 0.1 uM after 48 hrs by SRB assay relative to control; conditions: SNB-19, 48 h, read-out: Activity
# NCI-H23 = experiment: Growth inhibition of human NCI-H23 cells assessed as cell growth at 100 uM after 48 hrs by SRB assay relative to control; conditions: NCI-H23, 48 h, read-out: Activity
# SK-OV-3 = experiment: Growth inhibition of human SKOV3 cells assessed as cell growth at 1 uM after 48 hrs by SRB assay relative to control; conditions: SK-OV-3, 48 h, read-out: Activity
# SF-268 = experiment: Growth inhibition of human SF268 cells assessed as cell growth at 100 uM after 48 hrs by SRB assay relative to control; conditions: SF-268, 48 h, read-out: Activity
# OVCAR-8 [7] = experiment: Growth inhibition of human OVCAR8 cells assessed as cell growth at 10 uM after 48 hrs by SRB assay relative to control; conditions: OVCAR-8, 48 h, read-out: Activity
# OVCAR-3 = experiment: Growth inhibition of human OVCAR3 cells assessed as cell growth at 0.01 uM after 48 hrs by SRB assay relative to control; conditions: OVCAR-3, 48 h, read-out: Activity
# MDA-MB-468 [8] = experiment: Growth inhibition of human MDA-MB-468 cells assessed as cell growth at 0.01 uM after 48 hrs by SRB assay relative to control; conditions: MDA-MB-468, 48 h, read-out: Activity
# NCI-H460 [9] = experiment: Growth inhibition of human NCI-H460 cells assessed as cell growth at 10 uM after 48 hrs by SRB assay relative to control; conditions: NCI-H460, 48 h, read-out: Activity
# MDA-MB-435 [10] = experiment: Growth inhibition of human MDA-MB-435 cells assessed as cell growth at 10 uM after 48 hrs by SRB assay relative to control; conditions: MDA-MB-435, 48 h, read-out: Activity
# SNB-19 [11] = experiment: Growth inhibition of human SNB19 cells assessed as cell growth at 100 uM after 48 hrs by SRB assay relative to control; conditions: SNB-19, 48 h, read-out: Activity
# MDA-MB-435 [12] = experiment: Growth inhibition of human MDA-MB-435 cells assessed as cell growth at 1 uM after 48 hrs by SRB assay relative to control; conditions: MDA-MB-435, 48 h, read-out: Activity
# SK-MEL-2 = experiment: Growth inhibition of human SK-MEL-2 cells assessed as cell growth at 100 uM after 48 hrs by SRB assay relative to control; conditions: SK-MEL-2, 48 h, read-out: Activity
# HCC 2998 = experiment: Growth inhibition of human HCC2998 cells assessed as cell growth at 0.1 uM after 48 hrs by SRB assay relative to control; conditions: HCC 2998, 48 h, read-out: Activity
# MOLT-4 = experiment: Growth inhibition of human MOLT4 cells assessed as cell growth at 1 uM after 48 hrs by SRB assay relative to control; conditions: MOLT-4, 48 h, read-out: Activity
# HOP-62 [13] = experiment: Growth inhibition of human HOP62 cells assessed as cell growth at 1 uM after 48 hrs by SRB assay relative to control; conditions: HOP-62, 48 h, read-out: Activity
# RXF 393 = experiment: Growth inhibition of human RXF393 cells assessed as cell growth at 0.01 uM after 48 hrs by SRB assay relative to control; conditions: RXF 393, 48 h, read-out: Activity
# CAKI-1 = experiment: Cytotoxicity against human Caki1 cells assessed as growth inhibition after 48 hrs by SRB assay; conditions: CAKI-1, 48 h
# 786-0 [14] = experiment: Growth inhibition of human 786-0 cells assessed as cell growth at 1 uM after 48 hrs by SRB assay relative to control; conditions: 786-0, 48 h, read-out: Activity
# NCI-H460 [15] = experiment: Growth inhibition of human NCI-H460 cells assessed as cell growth at 100 uM after 48 hrs by SRB assay relative to control; conditions: NCI-H460, 48 h, read-out: Activity
# MDA-MB-435 [16] = experiment: Cytotoxicity against human MDA-MB-435 cells assessed as growth inhibition after 48 hrs by SRB assay; conditions: MDA-MB-435, 48 h
# MDA-MB-468 [17] = experiment: Growth inhibition of human MDA-MB-468 cells assessed as cell growth at 1 uM after 48 hrs by SRB assay relative to control; conditions: MDA-MB-468, 48 h, read-out: Activity
# [18] = read-out: LC50 (the source's name)
# [19] = read-out: pLC50 (the source's name) (converted)
compound,measurement,setting,value
COc1ccc2c(c1)CCc1n[nH]c(-c3cc(OC)c(OC)c(OC)c3)c1-2,growth at 1 µM,SNB-19 [1],34%
same,growth at 0.1 µM,HOP-62 [2],6%
same,growth at 1 µM,COLO 205,-56%
same,growth at 0.01 µM,OVCAR-8 [3],15%
same,growth at 100 µM,NCI-H322M,-21%
same,growth at 100 µM,MDA-MB-435 [4],-64%
same,growth at 1 µM,RPMI-8226,52%
same,CC50,EKVX; [18],> 100 µM
same,TGI,EKVX; read-out: TGI,39 µM
same,CC50,EKVX; [19],> 100 µM
same,TGI,EKVX; read-out: pTGI (converted),38.9 µM
same,GI50,KM12; read-out: GI50,< 0.01 µM
same,CC50,KM12; [18],46.5 µM
same,TGI,KM12; read-out: TGI,11.8 µM
same,GI50,KM12; read-out: pGI50 (converted),< 0.01 µM
same,CC50,KM12; [19],46.8 µM
same,TGI,KM12; read-out: pTGI (converted),11.7 µM
same,growth at 100 µM,786-0 [5],-48%
same,growth at 10 µM,CCRF-CEM,41%
same,growth at 0.1 µM,SNB-19 [6],33%
same,growth at 100 µM,NCI-H23,-42%
same,growth at 1 µM,SK-OV-3,-5%
same,growth at 100 µM,SF-268,-25%
same,growth at 10 µM,OVCAR-8 [7],9%
same,growth at 0.01 µM,OVCAR-3,14%
same,growth at 0.01 µM,MDA-MB-468 [8],-7%
same,growth at 10 µM,NCI-H460 [9],-5%
same,growth at 10 µM,MDA-MB-435 [10],-38%
same,growth at 100 µM,SNB-19 [11],-12%
same,growth at 1 µM,MDA-MB-435 [12],-35%
same,growth at 100 µM,SK-MEL-2,-51%
same,growth at 0.1 µM,HCC 2998,11%
same,growth at 1 µM,MOLT-4,36%
same,growth at 1 µM,HOP-62 [13],6%
same,growth at 0.01 µM,RXF 393,-8%
same,GI50,CAKI-1; read-out: GI50,< 0.01 µM
same,LC50 (concentration killing 50% of cells),CAKI-1; read-out: LC50,> 100 µM
same,TGI,CAKI-1; read-out: TGI,24.8 µM
same,GI50,CAKI-1; read-out: pGI50 (converted),< 0.01 µM
same,LC50 (concentration killing 50% of cells),CAKI-1; read-out: pLC50 (converted),> 100 µM
same,TGI,CAKI-1; read-out: pTGI (converted),24.5 µM
same,growth at 1 µM,786-0 [14],14%
same,growth at 100 µM,NCI-H460 [15],-59%
same,GI50,MDA-MB-435 [16]; read-out: GI50,< 0.01 µM
same,CC50,MDA-MB-435 [16]; [18],29.8 µM
same,TGI,MDA-MB-435 [16]; read-out: TGI,< 0.01 µM
same,GI50,MDA-MB-435 [16]; read-out: pGI50 (converted),< 0.01 µM
same,CC50,MDA-MB-435 [16]; [19],29.5 µM
same,TGI,MDA-MB-435 [16]; read-out: pTGI,< 0.01 µM
same,growth at 1 µM,MDA-MB-468 [17],-1%
